Assay results as given in EP0147851B1, “Water soluble forms of polyene antibiotics, and process for preparing them” (priority 1983, dated 1985).
Read-outs that look alike come from different tables or passages of the source.

Key:
[1] = tested on: aus menschlichem Blut hergestellten Suspensionen roter Blutkörperchen; conditions: human
Description: Dyn. 6, 408-414 [1983]) untersucht. Die Ergebnisse werden in Form der zu 50 %iger Hämolyse gehörenden Konzentrationen (EH₅₀) angegeben. […] Auch die hämolytische Wirkung einer der im Komplex gebundenen γ-CD-Menge entsprechenden Menge γ-Cyclodextrin wurde untersucht.

[2] = tested on: aus menschlichem Blut hergestellten Suspensionen roter Blutkörperchen; conditions: cited from earlier work
[3] = Solubility of Amphotericin B in aqueous γ-CD solutions (spectrophotometric); assay type: physicochemical; conditions: for Amphotericin B Konzentration: 37 °C, 2 Stunden geschüttelt
Procedure: Das ist ein weiterer Beweis dafür, daß das Amphotericin in den γ-CD-haltigen wäßrigen Lösungen in molekular disperser Form vorliegt.
Auch für Amphotericin B wurde die Löslichkeit als Funktion der γ-CD-Konzentration ermittelt. Zu wäßrigen γ-CD-Lösungen unterschiedlicher Konzentration (0, 2, 4, 5, 6, 8, 10 beziehungsweise 12 %) wurden 5 mg/ml Amphotericin B gegeben, und die bei 37 °C thermostatisierten Lösungen wurden 2 Stunden lang intensiv geschüttelt. Die Lösungen wurden klarfiltriert, und die Menge des in Lösung gegangenen Amphotericin B wurde spektrophotometrisch bestimmt. Die Ergebnisse sind in der Tabelle 3 zusammengestellt.

[4] = tested on: Weibliche CFY-Ratten; assay: Mortality after subcutaneous administration in rats; assay type: in vivo; conditions: subcutan, 302 mg/kg, 10 Tiere, observation one week
Description: • a) Die Resorption von Nystatin aus per os verabreichtem Nystatin-γ-CD-Komplex Die Resorption des Wirkstoffes wurde an Mäusen, an einem durch intravenöse Applikation einer Suspension von Candida albicans hervorgerufenen Sepsismodell untersucht. Die Sepsis verursachte innerhalb von 2-3 Tagen 100 %ige Mortalität. Den Versuchstieren wurde per os gemäß Beispiel 3 hergestellte, 8 % Nystatin enthaltende Komplex verabreicht. In einem Parallelversuch wurde Nystatin intravenös appliziert. Für beide Gruppen wurde die auf die unbehandelte Kontrolle bezogene Verlängerung der Überlebensdauer ermittelt. [formula] Wenn man diejenigen in Form des Komplexes per os verabreichten Nystatindosen mit denjenigen i.v. applizierten Nystatindosen vergleicht, die eine etwa gleiche Verlängerung der Überlebensdauer bewirkten (Tabelle 9, letzte Spalte),so läßt sich errechnen, daß aus dem Komplex durchschnittlich 6,2 % des Wirkstoffes in die Blutbahn gelangten. Bei den höchsten Dosen (i.v. 1,56 mg/kg, p.o. 25 mg/kg) ist das Zurückfallen der Überlebensdauer bereits auf die schwache Toxizität des Nystatins zurückzuführen. • b) Die Resorption von Nystatin aus subcutan appliziertem Nystatin-γ-CD-Komplex Weibliche CFY-Ratten eines durchschnittlichen Gewichtes von 180 g wurden mit Nystatin, mit Nystatin-γ-CD-Komplex (Wirkstoffgehalt9 8 %) beziehungsweise mit γ-CD behandelt. […]

[5] = Solubility of Flavofungin in aqueous γ-CD solutions (spectrophotometric); assay type: physicochemical; conditions: 4 % γ-CD versus water
Procedure: Der erste Beweis für die Wechselwirkung zwischen Flavofungin und γ-Cyclodextrin ist der beträchtliche Anstieg der Löslichkeit des Flavofungins in wäßrigen γ-Cyclodextrinlösungen. Zur Untersuchung der Löslichkeit wurden wäßrige γ-CD-Lösungen unterschiedlicher Konzentration hergestellt: die Lösungen enthielten 0, 1, 2, 3, 4, 5, 7,5 beziehungsweise 10 % γ-CD. Zu je 1 ml der Lösungen wurden 5 mg festes Flavofungin gegeben. Die Lösungen wurden bei 25 °C 3 Stunden lang intensiv geschüttelt.
Die Lösungen wurden klarfiltriert, dann wurde spektrophotometrisch die Menge des in Lösung gegangenen Flavofungins ermittelt. Die Messungen zeigten, daß sich das Flavofungin am besten in 4 % γ-CD enthaltenden wäßrigen Lösungen löst; unter den Bedingungen der Untersuchung können Konzentrationen von etwa 4 mg/ml erzielt werden. […] Eine weitere Erhöhung der γ-CD-Konzentration steigert die Löslichkeit des Flavofungins nicht weiter. Die Ergebnisse der Löslichkeitsuntersuchungen sind in der Tabelle 1 zusammengefaßt.
Die aus dem anfänglich linearen Abschnitt der bei 25 °C aufgenommenen Löslichkeitsisotherme berechnete scheinbare Stabilitätskonstante des Komplexes beträgt etwa 3230.
Die maximale Löslichkeit in 4 %iger γ-CD-Lösung wurde auch bei verschiedenen Temperaturen untersucht. Die Flavofunginkonzentration betrug bei 10 °C 3,3 mg/ml, bei 30 °C 4,1 mg/ml und bei 40 °C 3,8 mg/ml.

[6] = tested on: S. oerevisiae, C. albicans, C. crusei und C. pseudotropicals; assay: Microbiological potency after storage (MIC); assay type: cell-based; conditions: sample stored under nitrogen in the freezer
Procedure: Auch die mikrobiologische Wertmessung bestätigte, daß das Flavofungin in Form des γ-CD-Komplexes viel stabiler ist. Flavofungin-γ-CD-Komplex wurde bei Raumtemperatur und bei 60°C gelagert, und danach war die antifungale Wirkung genau so groß wie ursprünglich.
(§1) Auch mit diesem Produkt wird die im Beispiel 1 beschriebene Untersuchung der Wärmestabilität vorgenommen. Dabei wurde gefunden, daß der Komplex, ähnlich wie der lyophilisierte Komplex, eine erhöhte Wärmestabilität zeigt und seine antifungale Wirkung nicht geringer wird.

[7] = Raumtemperatur an der Luft, innerhalb von zwei Wochen; cited from earlier work
[8] = Heat and storage stability of the solid substances (spectrophotometric content); assay type: physicochemical; conditions: 60 °C, 24 Stunden, not protected from light or air
Procedure: Zur Untersuchung der Wärmestabilität des Flavofungin-γ-CD-Komplexes wurden die Substanzen in 1 mm Schichtdicke auf Uhrgläsern ausgebreitet und weder vor Licht noch vor Luft geschützt bei Raumtemperatur beziehungsweise bei 60 °C im Trockenschrank gelagert. Die zu unterschiedlichen Zeitpunkten genommenen Proben wurden spektrophotometrisch analysiert.
Der Wirkstoffgehalt des Flavofungin-γ-CD-Komplexes blieb jedoch auch nach 50 Tagen zu etwa 75 % erhalten. Ein 10 % Flavofungin enthaltendes, mit Glucose bereitetes physikalisches Gemisch verlor bei 14tägiger Lagerung bei Raumtemperatur 50 % seines Wirkstoffgehaltes. Der Wirkstoffgehalt des Komplexes war jedoch auch nach 50 Tagen noch zu mehr als 95 % erhalten. Die in einem verschlossenen Gefäß bei +4 °C 7 Monate lang gelagerte Probe zeigte keinen Verlust an Wirkstoff. Die Meßergebnisse sind in der Tabelle 4 zusammengestellt.
as §1

[9] = tested on: Mäusen; conditions: i.p. an Mäusen; cited from earlier work

## C[C@@H]1[C@H](O)[C@@H](C)/C=C/C=C/C=C/C=C/C=C/C=C/C=C/[C@H](O[C@@H]2O[C@H](C)[C@@H](O)[C@H](N)[C@@H]2O)C[C@@H]2O[C@](O)(C[C@@H](O)C[C@@H](O)[C@H](O)CC[C@@H](O)C[C@@H](O)CC(=O)O[C@H]1C)C[C@H](O)[C@H]2C(=O)O [Amphotericin B]
[1]
  EH₅₀ (concentration for 50 % haemolysis): 4,8 µg/ml
[1]; 25 µg/ml
  Hämolyse: 92,4%
[2]
  EH₅₀ (concentration for 50 % haemolysis): 5 µg/mL
[3]; 5 %ige γ-CD-Lösung
  Löslichkeit relative to Löslichkeit in Wasser: etwa das Hundertfache
[3]; 10 %ige γ-CD-Lösung
  Löslichkeit relative to Löslichkeit in Wasser: etwa das Zweihundertfache
[3]; Zusatz von 0,9 Gew.-% Kochsalz
  Löslichkeit in γ-CD-haltigen Lösungen on addition of salt: nicht verändert
[3]; γ-CD-Konzentration 0 %
  Amphotericin B Konzentration: 0,003 mg/ml
[3]; γ-CD-Konzentration 2 %
  Amphotericin B Konzentration: 0,12 mg/ml
[3]; γ-CD-Konzentration 4 %
  Amphotericin B Konzentration: 0,25 mg/ml
[3]; γ-CD-Konzentration 5 %
  Amphotericin B Konzentration: 0,30 mg/ml
[3]; γ-CD-Konzentration 6 %
  Amphotericin B Konzentration: 0,36 mg/ml
[3]; γ-CD-Konzentration 8 %
  Amphotericin B Konzentration: 0,51 mg/ml
[3]; γ-CD-Konzentration 10 %
  Amphotericin B Konzentration: 0,65 mg/ml
[3]; γ-CD-Konzentration 12 %
  Amphotericin B Konzentration: 0,65 mg/ml

## OC[C@H]1O[C@@H]2O[C@H]3[C@H](O)[C@@H](O)[C@@H](O[C@H]4[C@H](O)[C@@H](O)[C@@H](O[C@H]5[C@H](O)[C@@H](O)[C@@H](O[C@H]6[C@H](O)[C@@H](O)[C@@H](O[C@H]7[C@H](O)[C@@H](O)[C@@H](O[C@H]8[C@H](O)[C@@H](O)[C@@H](O[C@H]9[C@H](O)[C@@H](O)[C@@H](O[C@H]1[C@H](O)[C@H]2O)O[C@@H]9CO)O[C@@H]8CO)O[C@@H]7CO)O[C@@H]6CO)O[C@@H]5CO)O[C@@H]4CO)O[C@@H]3CO [γ-CD, γ-Cyclodextrin]
[4]
  Mortalität (animals that died): kein einziges

## Flavofungin
[5]
  Anstieg der Löslichkeit: etwa das Achtzigfache
[6]
  MIC: 25 µg/mL
[7]
  Verlust der Aktivität: 50%
[8]
  Zersetzung of the solid: starke Zersetzung

## Methylester von Amphotericin B
[9]
  LD₅₀: 1320 mg/kg
